Laboratory results published in US20090274626A1, “TARGETING TNF-alpha CONVERTING ENZYME(TACE)- DEPENDENT GROWTH FACTOR SHEDDING IN CANCER THERAPY” (The Regents of the University of California, priority 2005, published 2009).
“Also recorded” adds a separate entry of the source.

Legend:
[1] = system: T4-2 cells; experiment: 3D lrECM (Matrigel) culture of T4-2 cells: reversion of malignant phenotype, polarity, colony size; assay type: cell-based, human
Description: (§1) For 3D lrECM culture, T4-2 cells were seeded at 21000 cells per cm^2 on top of Matrigel, overlaid with H14 medium containing 5% Matrigel (BD Biosciences, San Jose, Calif.), and treated with 80 nM AG1478, 20 μM TAPI-2 or the relevant vehicle controls.
Silencer™ siRNAs against TACE (Ambion, Austin, Tex.) were also transfected in according to the Reverse Transfection protocol of Invitrogen. siRNAs against the following TACE sense strand sequences were transfected either individually (100 nM) or as a pool (33.3 nM each): […]tt (SEQ ID NO: 2), GCAGCAt[…]tt (SEQ ID NO:3) and […]tt (SEQ ID NO: 4). For 3D culture assays, T4-2 cells were trypsinized post-transfection and plated as single cells in Matrigel. Knockdown was assessed by western blot from a parallel transfection 48 hrs post-transfection. Random siRNA sequence was used as a negative control.
Indirect immunofluorescence. Colonies were solubilized from […] culture by shaking in PBS/0.05M EDTA on ice for 30 mins, fixed in 4% paraformaldehyde, permeabilized, stained with anti-α6-integrin (Chemicon, Temecula, Calif.) and counterstained with DAPI.
(§2) Quantitation of colony size in the 3D lrECM culture was performed by image analysis. Representative images were captured using a digital camera attached to a phase contrast microscope. The high resolution digital images were then analyzed using NIH Image analysis software and the cross-sectional area of each colony was determined for many colonies. This process was hand-curated to ensure that aggregates of colonies were not measured as a single colony.

[2] = system: T4-2 cells; experiment: Relative proliferation of T4-2 cells with AG 1478 with or without TAPI-2 (sensitization, FIG. 5); assay type: cell-based, human; conditions: 0.01 μM AG 1478 alone
Description: FIG. 5. […] T4-2 cells were allowed to adhere to 48 well plates. Drugs were added at the indicated concentrations. Conditions were analyzed in triplicate. For comparison, all data were normalized to the 100%.
(FIG. 5) In this experiment, T4-2 cells were allowed to adhere to 48 well plates. Drugs, AG 1478 and TAPI-2, were added at various concentrations of 0.001 μM, 0.01 μM, 0.1 μM, 1 μM, 10 μM and 100 μM. Conditions were analyzed in triplicate. For comparison, all data were normalized to the 100%.

[3] = system: T4-2 cells expressing AREGΔTM; experiment: 3D culture of T4-2 cells expressing soluble AREG (AREGΔTM): colony size and morphology; assay type: cell-based, human; conditions: AG1478-treated AREGΔTM vs proAREG colonies, P<0.0001
Description: as §1
(§3) Amphotropic retroviruses were generated by transfection (Lipofectamine; Invitrogen, Carlsbad, Calif.) of the Phoenix packaging cell line (a gift of Dr. Gary Nolan, Stanford) with pBM-IRES-Puro or derivatives containing the AREG or TGFα open reading frames. Two million phoenix cells per 6 cm dish were plated the day prior to transfection and transfected with 2 μg of the appropriate retroviral construct. Retrovirus-containing culture medium was harvested after 48 hrs, supplemented with polybrene to 5 μg/ml and added to HMT3522 cells at 30-50% confluence. Pools of stable infectants were selected in 1 μg/ml puromycin.
(§4) Cloning of pro-AREG and pro-TGFα. The open reading frames of these genes were amplified by PCR from T4-2 cDNA. […]
as §2, with “Representative images were captured using a digital camera attached to a phase contrast microscope.” left out

[4] = system: T4-2 cells; experiment: 3D culture of T4-2 cells in 80 nM AG1478 with various amounts of EGF; assay type: cell-based, human; conditions: 80 nM AG1478, four days
Description: It was shown that increasing amounts of the EGFR ligand, EGF, attenuates T4-2 cells response to 80 nM of AG 1478. Cells were cultured for four days in 80 nM AG1478 and various amounts of EGF. Above a threshold EGF concentration between 0.1-1 ng/ml ([…]), the EGFR inhibitor can no longer revert the malignant phenotype. Thus, reversion of T4-2 cells by EGFR inhibition is overcome by the presence of picomolar amounts of EGFR ligand.

[5] = system: T4-2 cells expressing TGFαΔTM; experiment: 3D culture of T4-2 cells expressing soluble TGFα (TGFαΔTM): colony size and morphology; assay type: cell-based, human; conditions: AG1478-treated TGFαΔTM vs proTGFα colonies, P<0.05
Description: as §1, §3, §4
as §2, with “Representative images were captured using a digital camera attached to a phase contrast microscope.” left out

[6] = system: patients with advanced pancreatic adenocarcinoma; conditions: cited from earlier work
[7] = system: NSCLC; conditions: single agent in NSCLC; cited from earlier work
[8] = system: T4-2 cells; experiment: T4-2 cell proliferation with Gefitinib in absence or presence of TGFα; assay type: cell-based, human; conditions: Gefitinib 0 nM, 0.3 nM and 3 nM
Description: Control cells were cultured in the absence of TGFα and cells were cultured in the presence of TGFα. Both the control cells and cells grown with TGFα were also cultured with various amounts of Gefitinib at 0 nM, 0.3 nM and 3 nM.

[9] = system: MAPK; experiment: MAPK activation in S1 cells by conditioned medium from T4-2 cells; assay type: cell-based, human; conditions: pre-incubation of S1 cells with inhibitor
Description: Western blotting. Cells were lysed in 50 mM Tris.HCl pH 7.5, 150 mM NaCl, 0.5% NP40 supplemented with protease and phosphatase inhibitors (Calbiochem, San Diego, Calif.) and clarified by centrifugation. 50 μg of each sample was fractionated by SDS-PAGE, transferred to nitrocellulose membranes and probed with antibodies against the following proteins: phospho-MAPK, Total MAPK, phospho-p70S6-Kinase, (Cell Signaling Technology, MA). E-cadherin (BD Biosciences, CA) was used as a loading control. Blots were developed using Supersignal West Femto (Pierce, Rockland, Ill.). Images were captured using a Fluor Chem 8900 imager (Alpha Innotech, San Leandro, Calif.).

[10] = system: non-small cell lung cancer (NSCLC) patients; conditions: two large trials, chemotherapy with Gefitinib; cited from earlier work
[11] = target: transmembrane precursor of Amphiregulin (pro-AREG) (human (cloned from T4-2 human breast cell cDNA)) (UniProt P15514); experiment: cell-based or functional assay
[12] = system: S1 cells; experiment: S1 cell proliferation with recombinant EGFR ligands; assay type: cell-based, human; conditions: recombinant ligand equimolar to EGF (860 μM)
Description: Cell culture All reagents were purchased from SIGMA (St. Louis, Mo.) except where otherwise noted. HMT3522 cells were cultivated on 2D and 3D substrata in H14 medium, a 50:50 mix of DMEM/F12 (UCSF Cell culture Facility, San Francisco, Calif.) supplemented with 5 μg/ml prolactin, 250 ng/ml insulin, 1.4×10^−6 M hydrocortisone, 10^−10 M β-estradiol, 2.6 ng/ml sodium selenite and 10 μg/ml transferrin. S1 cells were additionally supplemented with 10 ng/ml EGF. In various experiments, cells were supplemented with AREG, TACE, TGFα. In all cases, AREG and TGFα were used at the same molar concentration as EGF ([…]).
Proliferation assays. HMT3522 cells were seeded in 96 well plates and treated (in triplicate) as described in the figure legends. To determine relative growth, 0.1 volumes of WST cell proliferation analysis reagent (Roche, Indianapolis, Ind.) was added to the medium and its formazan metabolite was measured by absorbance at 460 nm.

COc1cc2ncnc(Nc3cccc(Cl)c3)c2cc1OC [AG1478]
colony size (cross-sectional area) vs vehicle ([1]; 3D culture, four days, p<0.001): significantly smaller than those formed by cells treated with vehicle alone; also recorded: significantly different from controls | reversion of the malignant phenotype of T4-2 cells ([1]; 3D lrECM culture, 80 nM AG1478 or 20 μM TAPI-2 vs vehicle): reversion of the malignant phenotype; also recorded: may be reverted | reduction in proliferation, EGFR inhibitor alone [2]: no reduction in proliferation | colony size in presence of the EGFR inhibitor [3]: consistently larger than those formed by cells infected with either empty vector or with the membrane-tethered pro-forms | threshold EGF concentration above which the EGFR inhibitor can no longer revert the malignant phenotype ([4]; 3D culture): 0.1 to 1 ng/mL | threshold EGF concentration above which the EGFR inhibitor can no longer revert the malignant phenotype ([4]; molar equivalent): 8.6 to 86 pM | colony size in presence of the EGFR inhibitor [5]: consistently larger than those formed by cells infected with either empty vector or with the membrane-tethered pro-forms

C#Cc1cccc(Nc2ncnc3cc(OCCOC)c(OCCOC)cc23)c1 [Erlotinib]
median extension in progression-free survival ([6]; added to gemcitabine): six | median increase in overall survival ([6]; added to gemcitabine): 14 days | survival benefit [6]: statistically significant survival benefit | increase in median progression-free survival time [7]: two

COc1cc2ncnc(Nc3ccc(F)c(Cl)c3)c2cc1OCCCN1CCOCC1 [Gefitinib]
effect of added TGFα on sensitivity of T4-2 cells to Gefitinib (cell proliferation) [8]: reduced the effectiveness | activation of MAPK in S1 cells by T4-2 conditioned medium [9]: suppressed | survival vs chemotherapy alone [10]: no better than chemotherapy alone

TACE/ADAM17 expressed endogenously in human breast cancer cells (T4-2, MCF-7) (from UniProt P78536 215-824) (enzyme)
reduction in AREG shedding from MCF-7 cells after siRNA knockdown of TACE [11]: 90%

TGFα: recombinant EGFR ligand TGFα
proliferation of non-malignant S1 cells in place of EGF [12]: can substitute for EGF to promote proliferation

B1: AREG: recombinant EGFR ligand Amphiregulin (protein, UniProt P15514 101-187, looked up)
Amphiregulin: SVRVEQVVKPPQNKTESENTSDKPKRKKKGGKNGKNRRNRKKKNPCNAEFQNFCIHGECKYIEHLEAVTCKCQQEYFGERCGEKSMK
proliferation of non-malignant S1 cells in place of EGF [12]: can substitute for EGF to promote proliferation
